The structures appear in SMILES notation.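 Briefly, cells in 96-well plates were exposed to five compound concentrations for 48 h, and endpoints were estimated by linear interpolation. TGI marks complete inhibition of growth.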

This assay concerns SN12K1 renal. Kind of assay: NCI tumour cell line growth inhibition, 48 h.

Molecule `CC1=C(C(=O)Nc2ccc(Cl)c(C(=O)OC(C)C)c2)SCCO1` displayed a TGI of 63.1 µM.
`NS(=O)(=O)OCCCCCCCOS(N)(=O)=O` showed a TGI of 605 µM.

For the origin of these results see PubChem BioAssay (NCI).
